This passage reports IC50 results from US8691804B2 (Evotec AG, priority 2008, dated 2014).

Bounds are passed on as bounds.

T1 sequence (Q9Y5N1 whole entry): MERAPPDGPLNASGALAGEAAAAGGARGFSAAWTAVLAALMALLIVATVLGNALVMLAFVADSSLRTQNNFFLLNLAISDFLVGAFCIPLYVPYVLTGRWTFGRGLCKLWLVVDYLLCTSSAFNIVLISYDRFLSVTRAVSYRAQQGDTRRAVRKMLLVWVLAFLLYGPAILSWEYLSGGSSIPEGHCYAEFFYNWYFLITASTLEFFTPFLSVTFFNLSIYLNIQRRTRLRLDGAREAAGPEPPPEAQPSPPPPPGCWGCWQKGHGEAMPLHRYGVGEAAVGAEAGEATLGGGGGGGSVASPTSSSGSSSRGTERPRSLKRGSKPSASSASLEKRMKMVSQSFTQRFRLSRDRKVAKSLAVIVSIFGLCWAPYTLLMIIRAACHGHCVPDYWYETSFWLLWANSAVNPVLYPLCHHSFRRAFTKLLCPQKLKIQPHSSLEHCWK

The assay concerns the target T1, human H3 receptors (Homo sapiens, UniProt Q9Y5N1).
T1 construct: host or cells: CHO-K1
Briefly: cAMP quantification assay for human H3 receptor testing. The format is cell-based. To be noted: CHO-K1 cells expressing human H3 receptors; inhibition of agonist-induced decrease of cAMP; 100 nM histamine, 10 μM forskolin; read-out: Potency range (IC50 values). A digest of the protocol: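 CHO-K1 cells expressing human H3 (10,000/well) were preincubated 30 min at 37 °C with compound in PBS containing 1 mM IBMX and 0.03% BSA. They were then challenged 30 min with agonist solution (100 nM histamine plus 10 μM forskolin). cAMP was quantified by enzyme-complementation luminescence, with 8 concentrations in triplicate at 1% DMSO.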
As a reminder, the IC50 is the concentration that inhibits the measured activity by half. As to `CNC(=O)c1cc(OC2CN(C(=O)N3CCCN(C4CCC4)CC3)C2)ccn1` [Example 147, 4-({1-[(4-cyclobutyl-1,4-diazepan-1-yl)carbonyl]azetidin-3-yl}oxy)-N-methylpyridine-2-carboxamide], the 50% inhibitory concentration (IC50) was under 100 nM.
Turning to `COCC1CN(C(=O)N2CCCN(C3CCC3)CC2)C1` [Example 148, 1-cyclobutyl-4-{[3-(methoxymethyl)azetidin-1-yl]carbonyl}-1,4-diazepane], the IC50 is under 100 nM.
In the case of `Cn1cc(-c2ccc(OC3CN(C(=O)N4CCCN(C5CCC5)CC4)C3)cc2)cn1` [Example 149, 1-cyclobutyl-4-({3-[4-(1-methyl-1H-pyrazol-4-yl)phenoxy]azetidin-1-yl}carbonyl)-1,4-diazepane] it was under 100 nM; in that of `Cc1nn(C)c(C)c1-c1ccc(OC2CN(C(=O)N3CCCN(C4CCC4)CC3)C2)cc1` [Example 150, 1-cyclobutyl-4-({3-[4-(1,3,5-trimethyl-1H-pyrazol-4-yl)phenoxy]azetidin-1-yl}carbonyl)-1,4-diazepane], under 100 nM; in that of `Cc1nccc(OC2CN(C(=O)N3CCCN(C4CCC4)CC3)C2)c1F` [Example 151, 1-cyclobutyl-4-({3-[(3-fluoro-2-methylpyridin-4-yl)oxy]azetidin-1-yl}carbonyl)-1,4-diazepane], under 100 nM.
In the case of `O=C(N1CCCN(C2CCC2)CC1)N1CC(Oc2ccc3ccccc3c2)C1` [Example 152, 1-cyclobutyl-4-{[3-(naphthalen-2-yloxy)azetidin-1-yl]carbonyl}-1,4-diazepane] it was under 100 nM; in that of `O=C(N1CCCN(C2CCC2)CC1)N1CC(COc2ccc(C(F)(F)F)nc2)C1` [Example 153, 1-cyclobutyl-4-{[3-({[6-(trifluoromethyl)pyridin-3-yl]oxy}methyl)azetidin-1-yl]carbonyl}-1,4-diazepane], under 100 nM; in that of `O=C(N1CCCN(C2CCC2)CC1)N1CC(Oc2ccc3[nH]ccc3c2)C1` [Example 154, 5-({1-[(4-cyclobutyl-1,4-diazepan-1-yl)carbonyl]azetidin-3-yl}oxy)-1H-indole], under 100 nM.
Under `Cn1ccc2cc(OC3CN(C(=O)N4CCCN(C5CCC5)CC4)C3)ccc21` [Example 155, 5-({1-[(4-cyclobutyl-1,4-diazepan-1-yl)carbonyl]azetidin-3-yl}oxy)-1-methyl-1H-indole] stands under 100 nM.
For the molecule `CC(C)(CO)c1ccc(OC2CN(C(=O)N3CCCN(C4CCC4)CC3)C2)cn1` [Example 156, 2-[5-({1-[(4-cyclobutyl-1,4-diazepan-1-yl)carbonyl]azetidin-3-yl}oxy)pyridin-2-yl]-2-methylpropan-1-ol], the concentration for half-maximal inhibition (IC50) is under 100 nM.
With `CCN1CCCN(C(=O)N2CC(Oc3ccc(C(C)(C)O)nc3)C2)CC1` [Example 157, 2-[5-({1-[(4-ethyl-1,4-diazepan-1-yl)carbonyl]azetidin-3-yl}oxy)pyridin-2-yl]propan-2-ol], the 50% inhibitory concentration (IC50) is under 100 nM.
Regarding `CC(C)N1CCCN(C(=O)N2CC(Oc3ccc(C(C)(C)O)nc3)C2)CC1` [Example 158, 2-{5-[(1-{[4-(1-methylethyl)-1,4-diazepan-1-yl]carbonyl}azetidin-3-yl)oxy]pyridin-2-yl}propan-2-ol], the concentration for half-maximal inhibition (IC50) was under 100 nM.
As for `CC(C)(O)c1ccc(OC2CN(C(=O)N3CCCN(C4CCCC4)CC3)C2)cn1` [Example 159, 2-[5-({1-[(4-cyclopentyl-1,4-diazepan-1-yl)carbonyl]azetidin-3-yl}oxy)pyridin-2-yl]propan-2-ol], the half-maximal inhibitory concentration (IC50) fell in the range of 500 to 5000 nM.
As for `O=C(N1CCCN(C2CCC2)CC1)N1CC(Oc2ncc(F)cn2)C1` [Example 160, 1-cyclobutyl-4-({3-[(5-fluoropyrimidin-2-yl)oxy]azetidin-1-yl}carbonyl)-1,4-diazepane], the IC50 is under 100 nM.
Under `COc1ccc(OC2CN(C(=O)N3CCCN(C4CCC4)CC3)C2)nc1` [Example 161, 1-cyclobutyl-4-({3-[(5-methoxypyridin-2-yl)oxy]azetidin-1-yl}carbonyl)-1,4-diazepane] stands under 100 nM; under `CCc1cnc(OC2CN(C(=O)N3CCCN(C4CCC4)CC3)C2)nc1` [Example 162, 1-cyclobutyl-4-({3-[(5-ethylpyrimidin-2-yl)oxy]azetidin-1-yl}carbonyl)-1,4-diazepane], 500 to 5000 nM.
As to `CS(=O)(=O)c1ccc(OC2CN(C(=O)N3CCCN(C4CCC4)CC3)C2)cc1` [Example 163, 1-cyclobutyl-4-({3-[4-(methylsulfonyl)phenoxy]azetidin-1-yl}carbonyl)-1,4-diazepane], the concentration for half-maximal inhibition (IC50) was under 100 nM.
In the case of `Cc1ccc(COC2CN(C(=O)N3CCCN(C4CCC4)CC3)C2)cn1` [Example 164, 1-cyclobutyl-4-({3-[(6-methylpyridin-3-yl)methoxy]azetidin-1-yl}carbonyl)-1,4-diazepane] it was under 100 nM.
Under `CC(C)(O)c1ccc(O[C@H]2C[C@@H](C(=O)N3CCCN(C4CCC4)CC3)C2)cn1` [Example 165, 2-[5-({cis-3-[(4-cyclobutyl-1,4-diazepan-1-yl)carbonyl]cyclobutyl}oxy)pyridin-2-yl]propan-2-ol] stands under 100 nM.
